Experimental data: US8685958B2, “Therapeutic agents” (AstraZeneca AB, priority 2011, dated 2014)

Key:
[1] = biological target: Melanin Concentrating Hormone Receptor 1 (MCHR1) (Homo sapiens (Human), UniProt Q99705); assay: MCHR1 receptor activation assay (GTPγ35S); assay type: biochemical
[2] = system: human hepatocytes; assay: Estimation of covalent binding of small molecules to proteins in hepatocytes (fCVB); assay type: in vitro ADME; conditions: binding of 3H- or 14C-labelled compound to cryopreserved human hepatocytes
Experimental: Estimation of Covalent Binding of Small Molecules to Proteins in Hepatocytes:
The assay is based on the modification of a published method (Day, S. H.; Mao, A.; White, R.; Schulz-Utermoehl, T.; Miller, R.; Beconi, M. G. (2005) A semi-automated method for measuring the potential for protein covalent binding in drug discovery. J. Pharmacol. Toxicol. Methods 52, 278-285.). Briefly, cryopreserved human hepatocytes are incubated in the presence of radiolabeled drug candidate in 24-well plates for a pre-determined period to allow sufficient turnover of the parent compound. Following the incubation period, samples are taken out and quenched by cold acetone in order to facilitate precipitation of proteins. […] After solubilization of proteins collected on filter papers, radioactive content and amount of protein is determined to give an estimate of pmol equivalent drug molecule bound per mg protein. In addition to assessing the extent of covalent binding, the turnover of the parent drug is quantified to give an estimate of fraction of metabolites leading to covalent binding (fCVB).
One aspect of the metabolic profile is the formation of reactive metabolites, where compounds of this invention in general are less prone to form such reactive metabolites. […] An fCVB value can then be calculated.

Melanin Concentrating Hormone Receptor 1 (MCHR1), sequence (Q99705 whole entry): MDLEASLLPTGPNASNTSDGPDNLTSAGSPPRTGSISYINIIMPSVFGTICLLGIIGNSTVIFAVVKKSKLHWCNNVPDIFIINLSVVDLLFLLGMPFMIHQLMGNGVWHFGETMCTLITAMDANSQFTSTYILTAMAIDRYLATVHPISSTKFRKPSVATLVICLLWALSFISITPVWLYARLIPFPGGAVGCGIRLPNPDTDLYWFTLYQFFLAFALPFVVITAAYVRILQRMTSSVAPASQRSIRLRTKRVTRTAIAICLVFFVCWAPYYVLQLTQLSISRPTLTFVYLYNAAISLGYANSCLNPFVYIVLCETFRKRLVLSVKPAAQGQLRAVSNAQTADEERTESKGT

IC50 [1]	Compound	fCVB value (fraction of metabolites leading to covalent binding) [2]
19 nM	O=C(c1nnc(-c2ccccc2)o1)N1CC(Oc2ccc(CN3CCC4(CCOC4)C3)cc2)C1 (centres unmarked) [Example 6, (3-(4-(2-oxa-7-azaspiro[4.4]nonan-7-ylmethyl)phenoxy)azetidin-1-yl)(5-phenyl-1,3,4-oxadiazol-2-yl)methanone]	–
15 nM	Cc1cc(OC2CN(C(=O)c3nnc(-c4ccccc4)o3)C2)ccc1CN1CC2(CCOC2)C1 [Example 9, (3-(4-(6-oxa-2-azaspiro[3.4]octan-2-ylmethyl)-3-methylphenoxy)azetidin-1-yl)(5-phenyl-1,3,4-oxadiazol-2-yl)methanone]	–
18 nM	Cc1cc(OC2CN(C(=O)c3nnc(-c4ccccc4)o3)C2)ccc1CN1CCC2(CCOC2)C1 (centres unmarked) [Example 10, (3-(4-(2-oxa-7-azaspiro[4.4]nonan-7-ylmethyl)-3-methylphenoxy)azetidin-1-yl)(5-phenyl-1,3,4-oxadiazol-2-yl)methanone]	–
15 nM	Cc1cc(OC2CN(C(=O)c3nnc(-c4ccccc4)o3)C2)ccc1CN1CC2(CCCO2)C1 [Example 11, (3-(4-(5-oxa-2-azaspiro[3.4]octan-2-ylmethyl)-3-methylphenoxy)azetidin-1-yl)(5-phenyl-1,3,4-oxadiazol-2-yl)methanone]	–
70 nM	O=C(c1nnc(-c2ccccc2)o1)N1CC(Oc2ccc(CN3CCCC34COC4)cc2)C1 [Example 13, (3-(4-(2-oxa-5-azaspiro[3.4]octan-5-ylmethyl)phenoxy)azetidin-1-yl)(5-phenyl-1,3,4-oxadiazol-2-yl)methanone]	–
23 nM	COc1ccc(-c2nnc(C(=O)N3CC(Oc4ccc(CN5CCCC56CCOC6)cc4)C3)o2)cc1 (centres unmarked) [Example 14, (3-(4-(7-oxa-1-azaspiro[4.4]nonan-1-ylmethyl)phenoxy)azetidin-1-yl)(5-(4-methoxyphenyl)-1,3,4-oxadiazol-2-yl)methanone]	–
58 nM	O=C(c1nnc(-c2ccccc2)o1)N1CC(Oc2ccc(CN3CCCC34CCOC4)cc2)C1 (centres unmarked) [Example 15, (3-(4-(7-oxa-1-azaspiro[4.4]nonan-1-ylmethyl)phenoxy)azetidin-1-yl)(5-phenyl-1,3,4-oxadiazol-2-yl)methanone]	–
34 nM	COc1cc(OC2CN(C(=O)c3nnc(-c4ccccc4)o3)C2)ccc1CN1CCCC12COC2 [Example 16, (3-(4-(2-oxa-5-azaspiro[3.4]octan-5-ylmethyl)-3-methoxyphenoxy)azetidin-1-yl)(5-phenyl-1,3,4-oxadiazol-2-yl)methanone]	–
420 nM	COc1cc(CN2CCCC23COC3)ccc1OC1CN(C(=O)c2nnc(-c3ccccc3)o2)C1 [Example 17, (3-(4-(2-oxa-5-azaspiro[3.4]octan-5-ylmethyl)-2-methoxyphenoxy)azetidin-1-yl)(5-phenyl-1,3,4-oxadiazol-2-yl)methanone]	–
150 nM	COc1cc(CN2CCCC23COC3)ccc1OC1CN(C(=O)c2nnc(-c3ccc(C(F)F)cc3)o2)C1 [Example 18, (3-(4-(2-oxa-5-azaspiro[3.4]octan-5-ylmethyl)-2-methoxyphenoxy)azetidin-1-yl)(5-(4-(difluoromethyl)phenyl)-1,3,4-oxadiazol-2-yl)methanone]	–
38 nM	COc1cc(OC2CN(C(=O)c3nnc(-c4ccc(C(F)F)cc4)o3)C2)ccc1CN1CCCC12COC2 [Example 19, (3-(4-(2-oxa-5-azaspiro[3.4]octan-5-ylmethyl)-3-methoxyphenoxy)azetidin-1-yl)(5-(4-(difluoromethyl)phenyl)-1,3,4-oxadiazol-2-yl)methanone]	–
23 nM	O=C(c1nnc(-c2ccccc2)o1)N1CC(Oc2ccc(CN3CCC4(CCCO4)C3)cc2)C1 (centres unmarked) [Example 22, (3-(4-(1-Oxa-7-azaspiro[4.4]nonan-7-ylmethyl)phenoxy)azetidin-1-yl)(5-phenyl-1,3,4-oxadiazol-2-yl)methanone]	–

Compound	IC50 [1]	fCVB value (fraction of metabolites leading to covalent binding) [2]
COc1ccc(-c2nnc(C(=O)N3CC(Oc4ccc(CN5CC6(CCOC6)C5)cc4)C3)o2)cc1 [Example 5, (3-(4-(6-oxa-2-azaspiro[3.4]octan-2-ylmethyl)phenoxy)azetidin-1-yl)(5-(4-methoxyphenyl)-1,3,4-oxadiazol-2-yl)methanone]	19 nM	0.0069
